Assays:
hDAT [1] = molecular target: T1, hDAT (Homo sapiens, UniProt Q01959); test: Uptake inhibition assay, [3H]MPP+ uptake in transfected HEK293 cells; conditions: for potency at inhibiting DAT relative to cocaine: [3H]MPP+ uptake at hDAT, vs cocaine
hSERT [2] = molecular target: T2, hSERT (Homo sapiens, UniProt P31645); test: Uptake inhibition assay, [3H]5-HT uptake in transfected HEK293 cells
hDAT [3] = molecular target: T1, hDAT; test: Transporter binding assay, [3H]WIN35,428 displacement in HEK293 membranes; set-up: expressed in transfected cells; conditions: for hDAT/hSERT Affinity Ratio: ratio of binding affinities at hDAT and hSERT
Procedure: (§1) To prepare membranes, HEK293 cells expressing monoamine transporters were harvested from 80–90% confluent dishes. In short, cells were washed with ice-cold phosphate buffered saline (PBS) twice. An extra 5 mL of PBS was added, and cells were mechanically detached using a plastic scraper and subsequently pelleted by centrifugation (400× g for 10 min at 4 °C). The resulting pellet was resuspended in hypotonic HME buffer (20 mM HEPES NaOH, 1 mM EDTA, 2 mM MgCl2; pH 7.4) and then subjected to two freeze-thaw cycles in liquid nitrogen and homogenization through sonication at 4 °C. Membranes were collected by centrifugation (40,000× g for 30 min at 4 °C) and resuspended in an appropriate volume of HME buffer. Protein concentration was determined using the Bio-Rad Protein Reagent (Bio Rad Laboratories, Hercules, CA, USA). Membrane preparations were kept at −80 °C.
(hSERT assay, final concentration 3 nM)) diluted in the corresponding reaction buffer, 15 µg of membranes in 100 µL of reaction buffer, and 125 µL of the tested drug dilution. […] This non-specific binding also allows subtracting the binding to other components such as the microfiber filters or membrane lipids from the total binding values. Incubation was performed for 1 h at 22 °C. […] The filters were then placed into vials and scintillation cocktail was added. The trapped radioactivity was quantified by liquid scintillation counting. Specific binding of each drug to the transporter was defined as the difference between total binding (binding buffer in absence of drug) and non-specific binding.
Data were expressed as mean ± SEM.

hSERT [4] = molecular target: T2, hSERT; test: Transporter binding assay, [3H]imipramine displacement in HEK293 membranes; set-up: expressed in transfected cells
Procedure: as §1
This non-specific binding also allows subtracting the binding to other components such as the microfiber filters or membrane lipids from the total binding values. Incubation was performed for 1 h at 22 °C. […] The filters were then placed into vials and scintillation cocktail was added. The trapped radioactivity was quantified by liquid scintillation counting. Specific binding of each drug to the transporter was defined as the difference between total binding (binding buffer in absence of drug) and non-specific binding.
(§2) Data were expressed as mean ± SEM. […] High ratios indicate greater selectivity for DAT.

Swiss CD-1 mice [5] = test: Open field test: center vs. periphery (anxiety-like behavior); format: in vivo; conditions: for acute anxiogenic effect (time in center of open field): 2.5, 10 and 25 mg kg−1 i.p., acute administration
Procedure: (§3) Male Swiss CD-1 mice (Janvier, Le Genest, France) weighing 30–35 g (6–8 weeks old) were randomly assigned to an experimental group. The animals were housed (seven per cage) in polycarbonate cages with wood-derived bedding, in temperature-controlled conditions (22 ± 1 °C) under a 12 h light/dark cycle and had ad libitum access to food (standard laboratory diet, Panlab SL, Barcelona, Spain) and drinking water. All animal care and experimental protocols in this study were approved by the Animal Ethics Committee of the University of Barcelona under the supervision of the Autonomous Government of Catalonia and are in accordance with the guidelines of the European Community Council (2010/63/EU), as amended by Regulation (EU) 2019/1010. Efforts were made to minimize animal use and suffering. All studies involving animals comply with the ARRIVE guidelines. The animals were supervised before and throughout the study, immediately after injection, and during the behavioral experiment as well as 24 h after injection, and different parameters were visually evaluated for humane endpoints, such as abnormal posture, greater loss than 20%, self-mutilations, and strange vocalizations.
Open-field experiments are straight-forward tests that evaluate the animals’ activity in response to novelty (or anxiogenic environment) and pharmacological treatments. Each animal was placed into the center of an open field arena, with sufficient height to prevent the animals from escaping (25 cm length × 25 cm width × 40 cm height), and the time spent (in seconds) in the center (8 × 8 cm) or the periphery of the arena was monitored for 60 min (Smart 3.0 Panlab, Barcelona, Spain).
as §2

Swiss CD-1 mice [6] = test: Conditioned place preference (CPP); format: in vivo; conditions: for CPP rewarding effects vs saline: highest dose 25 mg kg−1 i.p.
Procedure: as §3
A place conditioning paradigm was used to determine the potential of the seven α-PVP derivatives to induce rewarding effects. The apparatus that is used for this test consists of two compartments, with differences in tactile and visual cues, communicated by a central corridor. Conditioned place preference (CPP) was performed as described by. Briefly, CPP was performed in three phases: preconditioning test and conditioning and post-conditioning test. During the preconditioning phase, mice had free access to both compartments during 15 min, and the time spent in each compartment was recorded and monitored (Smart 3.0 Panlab, Barcelona, Spain). During the conditioning phase (8 sessions), access to the corridor was closed, and mice received an i.p. injection of the corresponding α-PVP derivative and were immediately placed into one of the compartments for 20 min. The doses tested are in accordance with the ones used in the HLA experiment. On the alternative session, mice were placed for 20 min in the other compartment after receiving a saline i.p. injection. Mice in the control group received a saline injection in every session. The compartment and session in which mice received the drug was randomized. On the test day (post-conditioning phase), the same conditions as in the pre-conditioning phase applied. A preference score, expressed in seconds, was calculated as the difference between the time spent in the drug-paired compartment in the post-conditioning test minus the time spent in the preconditioning phase.
as §2

Swiss CD-1 mice [7] = test: Horizontal locomotor activity (HLA); format: in vivo; conditions: for HLA vs saline group: 2.5 mg kg−1 i.p., distance travelled in 60 min; for duration of the increase in locomotor activity: medium dose 10 mg kg−1 i.p., time course
Procedure: as §3
A habituation phase was performed to reduce the novelty and stress associated with handling and injection. In this habituation phase, all mice received, for two consecutive days, an intraperitoneal (i.p.) saline injection and were then placed into a black Plexiglass open field arena (25 × 25 × 40 cm) under low-light conditions and white noise for 30 min. On the test day, the horizontal locomotor activity (HLA) produced by the tested cathinones was measured as described by, with minor modifications. Briefly, the animals received the corresponding i.p. injection (saline 5 mL kg^−1, 3-F-α-PVP, 4-F-α-PVP, 3-Cl-α-PVP, 4-Cl-α-PVP, 3,4-Cl2-α-PVP, 3-Br-α-PVP or 4-Br-α-PVP 2.5, 10 or 25 mg kg^−1 and were immediately placed in the open field arena with the same conditions of light and noise. HLA was video-monitored for 1 h, and their total travelled distance (in cm) was measured using a specific tracking software (Smart 3.0 Panlab, Barcelona, Spain).
as §2

T1 sequence (Q01959 whole entry): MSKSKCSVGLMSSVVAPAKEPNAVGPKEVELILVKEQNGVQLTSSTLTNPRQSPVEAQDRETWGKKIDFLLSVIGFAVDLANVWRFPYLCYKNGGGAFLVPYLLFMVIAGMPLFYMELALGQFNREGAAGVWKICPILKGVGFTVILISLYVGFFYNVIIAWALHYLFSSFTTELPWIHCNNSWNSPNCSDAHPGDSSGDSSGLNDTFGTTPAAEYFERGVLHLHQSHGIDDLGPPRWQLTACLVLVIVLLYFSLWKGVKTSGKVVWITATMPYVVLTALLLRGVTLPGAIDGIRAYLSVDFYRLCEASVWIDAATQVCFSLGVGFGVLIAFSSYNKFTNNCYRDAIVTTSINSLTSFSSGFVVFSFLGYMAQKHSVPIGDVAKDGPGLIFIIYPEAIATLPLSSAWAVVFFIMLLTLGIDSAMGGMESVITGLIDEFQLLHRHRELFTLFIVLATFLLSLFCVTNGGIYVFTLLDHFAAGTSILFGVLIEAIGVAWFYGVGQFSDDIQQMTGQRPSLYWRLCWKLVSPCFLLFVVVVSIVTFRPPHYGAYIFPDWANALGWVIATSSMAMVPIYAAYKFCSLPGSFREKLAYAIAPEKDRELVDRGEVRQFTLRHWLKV
T2 sequence (P31645 whole entry): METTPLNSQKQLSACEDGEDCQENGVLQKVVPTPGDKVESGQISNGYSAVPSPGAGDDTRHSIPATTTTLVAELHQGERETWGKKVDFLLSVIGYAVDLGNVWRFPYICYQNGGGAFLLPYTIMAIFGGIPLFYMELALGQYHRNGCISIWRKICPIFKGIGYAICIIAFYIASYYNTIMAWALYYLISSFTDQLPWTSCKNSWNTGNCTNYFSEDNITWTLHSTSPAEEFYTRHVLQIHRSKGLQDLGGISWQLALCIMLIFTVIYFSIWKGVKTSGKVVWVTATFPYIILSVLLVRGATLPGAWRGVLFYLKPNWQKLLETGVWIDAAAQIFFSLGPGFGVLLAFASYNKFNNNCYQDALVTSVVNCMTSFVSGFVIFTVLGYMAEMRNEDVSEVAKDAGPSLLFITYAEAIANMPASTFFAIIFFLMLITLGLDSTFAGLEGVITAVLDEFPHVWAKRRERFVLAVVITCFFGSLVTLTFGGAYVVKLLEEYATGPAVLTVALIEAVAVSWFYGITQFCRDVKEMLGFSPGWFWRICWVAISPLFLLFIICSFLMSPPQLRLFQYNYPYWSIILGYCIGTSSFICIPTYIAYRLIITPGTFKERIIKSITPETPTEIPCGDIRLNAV

| Structure (SMILES) | IC50 (hDAT [1]) | hDAT/hSERT Inhibition Ratio (hDAT [1]) | IC50 (hSERT [2]) | Ki (hDAT [3]) | hDAT/hSERT Affinity Ratio (hDAT [3]) | Ki (hSERT [4]) | acute anxiogenic effect (time in center of open field) (Swiss CD-1 mice [5]) | CPP rewarding effects vs saline (Swiss CD-1 mice [6]) | potency at inhibiting DAT relative to cocaine (hDAT [1]) | CPP rewarding properties vs saline (Swiss CD-1 mice [6]; lowest dose 2.5 mg kg−1 i.p.) | HLA vs saline group (Swiss CD-1 mice [7]) | HLA dose-response at the highest dose (Swiss CD-1 mice [7]; 25 mg kg−1 i.p.) | time in center of open field at the lowest dose (Swiss CD-1 mice [5]; 2.5 mg kg−1 i.p.) | duration of the increase in locomotor activity (Swiss CD-1 mice [7]) | time in center of open field at the highest dose (Swiss CD-1 mice [5]; 25 mg kg−1 i.p., effect only at this dose) |
| --- | --- | --- | --- | --- | --- | --- | --- | --- | --- | --- | --- | --- | --- | --- | --- |
| CCCC(C(=O)c1ccc(Cl)c(Cl)c1)N1CCCC1 (stereo not drawn) [3,4-Cl-α-PVP, 3,4-Dichloro-α-Pyrrolidinopentiophenone] | 266 nM | 47 | 12700 nM | 11 nM | 462 | 4990 nM | anxiogenic effect | significant increase of the rewarding effects |  |  |  |  |  |  |  |
| CCCC(C(=O)c1cccc(Br)c1)N1CCCC1 (stereo not drawn) [3-Br-α-PVP, 3-Bromo-α-Pyrrolidinopentiophenone] | 117 nM | 341 | 40000 nM | 12 nM | 470 | 5600 nM | anxiogenic effect | significant increase of the rewarding effects | 2 fold | did not show rewarding properties |  |  |  |  |  |
| CCCC(C(=O)c1cccc(Cl)c1)N1CCCC1 (stereo not drawn) [3-Cl-α-PVP, 3-Chloro-α-Pyrrolidinopentiophenone] | 349 nM | 95 | 33300 nM | 13 nM | 1234 | 16400 nM | anxiogenic effect | did not induce significant rewarding effects |  |  | significant effect | ceiling effect | anxiogenic effects |  |  |
| CCCC(C(=O)c1cccc(F)c1)N1CCCC1 (stereo not drawn) [3-F-α-PVP, 3-Fluoro-α-Pyrrolidinopentiophenone] | 132 nM | 1819 | > 100000 nM | 14 nM | 4540 | 63500 nM | anxiogenic effect |  | 2 fold |  | significant effect |  |  |  |  |
| CCCC(C(=O)c1ccc(Br)cc1)N1CCCC1 (stereo not drawn) [4-Br-α-PVP, 4-Bromo-α-Pyrrolidinopentiophenone] | 156 nM | 148 | 23100 nM | 24 nM | 52 | 1250 nM | did not cause acute anxiogenic effects | significant increase of the rewarding effects | 2 fold |  |  |  |  | < 60 min |  |
| CCCC(C(=O)c1ccc(Cl)cc1)N1CCCC1 (stereo not drawn) [4-Cl-α-PVP, 4-Chloro-α-Pyrrolidinopentiophenone] | 391 nM | 38 | 15200 nM | 16 nM | 478 | 7900 nM | anxiogenic effect | did not induce significant rewarding effects |  |  |  |  |  | < 60 min |  |
| CCCC(C(=O)c1ccc(F)cc1)N1CCCC1 (stereo not drawn) [4-F-α-PVP, 4-Fluoro-α-Pyrrolidinopentiophenone] | 154 nM | 1366 | > 100000 nM | 49 nM | 1173 | 57900 nM | anxiogenic effect | significant increase of the rewarding effects | 2 fold |  |  |  |  |  | decrease in the time spent in the center |
| CCCC(C(=O)c1ccccc1)N1CCCC1 (stereo not drawn) [α-PVP, α-Pyrrolidinopentiophenone] | 129 nM | 3418 | > 100000 nM | 17 nM | 8514 | > 100000 nM |  |  |  |  |  |  |  |  |  |

Source: paper PMC8876800, “Neuropsychopharmacology of Emerging Drugs of Abuse: meta- and para-Halogen-Ring-Substituted α-PVP (“flakka”) Derivatives” (International Journal of Molecular Sciences, 2022)
